From patent publication US9353107B2 (Aurigene Discovery Technologies Limited, priority 2012, dated 2016) come the findings set out here.

Some results are limits rather than exact numbers.

The assay has as its target T1, recombinant human ALK enzyme (ALK WT) (Homo sapiens, UniProt Q9UM73).
T1 construct: purchased Carna Biosciences 08-518
Description: ALK WT cell free enzymatic assay (TR-FRET). Format: biochemical. The note with it: 1 μM ATP; for inhibition at 0.1 µM: compound at 100 nM; for inhibition at 0.1 µM / inhibition at 1 µM: 30 min pre-incubation; for inhibition at 1 µM: compound at 1 μM; for IC50: 10 point dose response. Summed up: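 Read-out is TR-FRET (665 nm/615 nm ratio) using an Eu-labeled anti-phosphotyrosine antibody. Compound is pre-incubated 30 min with recombinant human ALK, then reacted 30 min with 1 μM ATP and 40 nM Poly GT substrate. Values are percent inhibition at 100 nM and 1 μM, plus IC50 from 10-point variable-slope regression.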
Background: Time-resolved FRET reads energy transfer from a long-lived donor to a nearby acceptor.

T1 sequence (Q9UM73 1058-1620 limits assumed): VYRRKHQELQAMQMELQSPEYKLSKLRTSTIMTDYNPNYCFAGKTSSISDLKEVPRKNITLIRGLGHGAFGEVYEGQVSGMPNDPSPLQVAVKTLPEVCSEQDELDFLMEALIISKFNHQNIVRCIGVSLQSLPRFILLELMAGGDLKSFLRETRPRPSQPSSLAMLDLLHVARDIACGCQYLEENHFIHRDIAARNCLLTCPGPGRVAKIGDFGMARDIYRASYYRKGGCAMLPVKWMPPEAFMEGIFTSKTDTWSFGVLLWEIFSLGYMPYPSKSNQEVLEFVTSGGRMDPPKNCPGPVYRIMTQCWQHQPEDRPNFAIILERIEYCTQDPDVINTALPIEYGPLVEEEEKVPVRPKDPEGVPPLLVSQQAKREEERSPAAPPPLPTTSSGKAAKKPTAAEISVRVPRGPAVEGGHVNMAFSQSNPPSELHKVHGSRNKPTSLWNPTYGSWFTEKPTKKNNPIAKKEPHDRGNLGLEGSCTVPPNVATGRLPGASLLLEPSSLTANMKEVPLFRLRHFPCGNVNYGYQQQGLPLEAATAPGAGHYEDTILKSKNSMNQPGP

With `Cc1nn(Cc2cccc(F)c2)c(C)c1-c1c(C2CC2)[nH]c2ncc(-c3ccc(N4CCNCC4)cc3)cc12` [Example 63, 2-cyclopropyl-3-(1-(3-fluorobenzyl)-3,5-dimethyl-1H-pyrazol-4-yl)-5-(4-(piperazin-1-yl)phenyl)-1H-pyrrolo[2,3-b]pyridine], the inhibition at 0.1 µM was determined as 15% and the inhibition at 1 µM was determined as 48%.
With `COc1ccc(-c2cnc3[nH]cc(-c4cnn(CCc5ccccc5)c4)c3c2)cc1NS(C)(=O)=O` [Example 64, N-(2-methoxy-5-(3-(1-phenethyl-1H-pyrazol-4-yl)-1H-pyrrolo[2,3-b]pyridin-5-yl)phenyl) methanesulfonamide], the 50% inhibitory concentration (IC50) was below 50 nM, the inhibition at 0.1 µM was 59% and the inhibition at 1 µM was 82%.
For the compound `COc1ncc(-c2cnc3[nH]cc(-c4cnn(Cc5cccc(F)c5)c4)c3c2)cc1N` [Example 65, 5-(3-(1-(3-fluorobenzyl)-1H-pyrazol-4-yl)-1H-pyrrolo[2,3-b]pyridin-5-yl)-2-methoxypyridin-3-amine], the 50% inhibitory concentration (IC50) was below 50 nM, the inhibition at 0.1 µM was 97% and the inhibition at 1 µM came out at 100%.
`Cc1nn(Cc2cccc(F)c2)c(C)c1-c1c[nH]c2ncc(-c3cnc(O)c(NS(C)(=O)=O)c3)cc12` [Example 66, N-(5-(3-(1-(3-fluorobenzyl)-3,5-dimethyl-1H-pyrazol-4-yl)-1H-pyrrolo[2,3-b]pyridin-5-yl)-2-hydroxypyridin-3-yl)methanesulfonamide]: the inhibition at 0.1 µM was determined as 38% and the inhibition at 1 µM stood at 95%.
With `COc1ncc(-c2cnc3[nH]cc(-c4cnn(Cc5cccc(F)c5)c4)c3c2)cc1NS(C)(=O)=O` [Example 67, N-(5-(3-(1-(3-fluorobenzyl)-1H-pyrazol-4-yl)-1H-pyrrolo[2,3-b]pyridin-5-yl)-2-methoxypyridin-3-yl)methanesulfonamide], the IC50 was below 50 nM, the inhibition at 0.1 µM stood at 98% and the inhibition at 1 µM was determined as 100%.
As to `COc1cc(-c2cnc3[nH]cc(-c4cnn(Cc5cccc(F)c5)c4)c3c2)ccc1NS(C)(=O)=O` [Example 68, N-(4-(3-(1-(3-fluorobenzyl)-1H-pyrazol-4-yl)-1H-pyrrolo[2,3-b]pyridin-5-yl)-2-methoxyphenyl) methanesulfonamide], the inhibition at 0.1 µM was determined as 70% and the inhibition at 1 µM amounted to 93%.
As to `COc1ccc(-c2cnc3[nH]cc(-c4ccn(Cc5cc(F)cc(F)c5)n4)c3c2)cc1NS(C)(=O)=O` [Example 69, N-(5-(3-(1-(3,5-difluorobenzyl)-1H-pyrazol-3-yl)-1H-pyrrolo[2,3-b]pyridin-5-yl)-2-methoxyphenyl)methanesulfonamide], the inhibition at 0.1 µM stood at 15% and the inhibition at 1 µM came to 76%.
With `COc1ccc(-c2cnc3[nH]cc(-c4cnn(Cc5cc(F)ccc5F)c4)c3c2)cc1NS(C)(=O)=O` [Example 70, N-(5-(3-(1-(2,5-difluorobenzyl)-1H-pyrazol-4-yl)-1H-pyrrolo[2,3-b]pyridin-5-yl)-2-methoxyphenyl)methanesulfonamide], the IC50 was below 50 nM, the inhibition at 0.1 µM stood at 91% and the inhibition at 1 µM stood at 99%.
As to `COc1ccc(-c2cnc3[nH]cc(-c4cnn(Cc5cc(F)cc(F)c5)c4)c3c2)cc1NS(C)(=O)=O` [Example 71, N-(5-(3-(1-(3,5-difluorobenzyl)-1H-pyrazol-4-yl)-1H-pyrrolo[2,3-b]pyridin-5-yl)-2-methoxyphenyl)methanesulfonamide], the IC50 is below 50 nM, the inhibition at 0.1 µM came to 94% and the inhibition at 1 µM amounted to 100%.
With `COc1ccc(-c2cnc3[nH]cc(-c4cnn(Cc5cccnc5)c4)c3c2)cc1NS(C)(=O)=O` [Example 72, N-(2-methoxy-5-(3-(1-(pyridin-3-ylmethyl)-1H-pyrazol-4-yl)-1H-pyrrolo[2,3-b]pyridin-5-yl)phenyl)methanesulfonamide], the IC50 lay within 50 to 250 nM, the inhibition at 0.1 µM was found to be 76% and the inhibition at 1 µM was 100%.

Broadly, the inhibition is the change of the read-out against control, counted positive when it falls. A word on the IC50: it is the concentration at which inhibition is half-maximal.
